This passage reports IC50 results from US20240116951A1, “HETEROCYCLIC COMPOUNDS AND USES THEREOF” (Kumquat Biosciences Inc., priority 2022, published 2024).

Assay type in all cases: binding
One experiment concerns the target T1, KRAS WT (Homo sapiens, UniProt P01116).
T1 construct: made in house; host or cells: E. coli, e.g. BL21 (DE3)
The experiment is described as follows: HTRF assay of wildtype K-Ras interaction with SOS1 (PPI-HTRF). The following applies: HTRF, 5 nM KRAS WT; read-out: PPI-HTRF-5 nM KRAS WT. The essentials:
(§1)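 HTRF readout of GST-tagged K-Ras (WT or mutant) binding to His-hSOS1, using anti-GST-Eu donor and anti-6His-XL665 acceptor in HEPES pH 7.4 buffer with DTT, BSA and Igepal. Read after about 10 min or longer; duplicate compound dilutions from 10 μM. IC50 from 665/620 nm ratio.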
(In general: In TR-FRET formats the signal depends on donor and acceptor labels being close together.)

In the next experiment the target is T2, KRAS G12S (Homo sapiens, UniProt P01116, G12S).
T2 construct: made in house; host or cells: E. coli, e.g. BL21 (DE3)
T2 sequence (P01116 1-188 isoform P01116-2 G12S): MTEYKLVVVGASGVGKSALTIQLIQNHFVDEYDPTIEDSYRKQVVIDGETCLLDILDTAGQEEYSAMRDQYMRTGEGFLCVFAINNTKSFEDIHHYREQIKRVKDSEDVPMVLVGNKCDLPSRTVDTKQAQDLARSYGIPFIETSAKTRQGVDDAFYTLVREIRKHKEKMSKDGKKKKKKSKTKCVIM
The experiment is described as follows: HTRF assay of K-Ras G12S interaction with SOS1 (PPI-HTRF). Conditions: 5 nM KRAS G12S, read-out: PPI-HTRF-5 nM KRAS G12S. The method, boiled down:
as §1

Another experiment concerns the target T3, KRAS G12D (Homo sapiens, UniProt P01116, G12D).
T3 construct: made in house; host or cells: E. coli, e.g. BL21 (DE3)
The experiment is described as follows: HTRF assay of K-Ras G12D interaction with SOS1 (PPI-HTRF). Conditions: HTRF, 5 nM KRAS G12D; read-out: PPI-HTRF-5 nM KRAS G12D. The essentials:
as §1

Molecules are shown by their SMILES.

T3 sequence (P01116 1-188 isoform P01116-2 G12D): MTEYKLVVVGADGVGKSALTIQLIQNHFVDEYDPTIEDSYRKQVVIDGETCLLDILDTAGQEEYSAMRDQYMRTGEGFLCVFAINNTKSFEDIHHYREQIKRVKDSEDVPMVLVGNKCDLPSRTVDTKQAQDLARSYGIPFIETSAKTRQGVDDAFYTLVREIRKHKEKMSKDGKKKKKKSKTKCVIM
T1 sequence (P01116 1-188 isoform P01116-2): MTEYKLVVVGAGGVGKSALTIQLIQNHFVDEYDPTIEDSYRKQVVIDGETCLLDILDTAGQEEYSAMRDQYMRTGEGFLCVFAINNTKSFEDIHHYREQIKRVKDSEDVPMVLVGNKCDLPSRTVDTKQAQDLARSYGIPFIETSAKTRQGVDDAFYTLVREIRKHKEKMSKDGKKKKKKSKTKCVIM

With `N#Cc1c(N)sc2c(F)ccc(-c3c(Cl)cc4c(N5CC[C@@]6(CCN6C(=O)n6cnc(Cl)n6)C5)nc(OC[C@@]56CCCN5C[C@H](F)C6)nc4c3F)c12` (atropisomer, axis not shown; (aS)) [Compound 225, 2-amino-4-((R)-6-chloro-4-((R)-1-(3-chloro-1H-1,2,4-triazole-1-carbonyl)-1,6-diazaspiro[3.4]octan-6-yl)-8-fluoro-2-(((2R,7aS)-2-fluorotetrahydro-1H-pyrrolizin-7a(5H)-yl)methoxy)quinazolin-7-yl)-7-fluorobenzo[b]thiophene-3-carbonitrile], the IC50 at KRAS WT, on KRAS G12S and on KRAS G12D was less than 5 µM each time.

In the case of `N#Cc1c(N)sc2c(F)ccc(-c3c(Cl)cc4c(N5CCCCC6(CCN6C(=O)n6cncn6)C5)nc(OC[C@@]56CCCN5C[C@H](F)C6)nc4c3F)c12` (stereo partly drawn) [Compound 350], the IC50 on KRAS WT, at KRAS G12S and at KRAS G12D was less than 5 µM in each case.

Take `N#Cc1c(N)sc2c(F)ccc(-c3c(Cl)cc4c(N5CCCCC6(CCCN6C(=O)n6cncn6)C5)nc(OC[C@@]56CCCN5C[C@H](F)C6)nc4c3F)c12` (mixture of isomers) [Compound 349, 4-(4-(1-(1H-1,2,4-triazole-1-carbonyl)-1,7-diazaspiro[4.6]undecan-7-yl)-6-chloro-8-fluoro-2-(((2R,7aS)-2-fluorotetrahydro-1H-pyrrolizin-7a(5H)-yl)methoxy)quinazolin-7-yl)-2-amino-7-fluorobenzo[b]thiophene-3-carbonitrile]: the IC50 at KRAS WT, at KRAS G12S and on KRAS G12D was less than 5 µM each time.

`Nc1nc2c(-c3c(Cl)cc4c(N5CCCC6(CCN6)C5)nc(OC[C@@]56CCCN5C[C@H](F)C6)nc4c3F)ccc(F)c2s1` (stereo partly drawn) [Compound 202, 4-(6-chloro-8-fluoro-2-(((2R,7aS)-2-fluorotetrahydro-1H-pyrrolizin-7a(5H)-yl)methoxy)-4-(1,6-diazaspiro[3.5]nonan-6-yl)quinazolin-7-yl)-7-fluorobenzo[d]thiazol-2-amine]: the IC50 at KRAS WT, on KRAS G12S and on KRAS G12D was less than 5 µM in each case.

As to `N#Cc1c(N)sc2c(F)ccc(-c3c(Cl)cc4c(N5CCC6(CCCCN6C(=O)n6cncn6)C5)nc(OC[C@@]56CCCN5C[C@H](F)C6)nc4c3F)c12` (stereo partly drawn) [Compound 216, 4-(4-(6-(1H-1,2,4-triazole-1-carbonyl)-2,6-diazaspiro[4.5]decan-2-yl)-6-chloro-8-fluoro-2-(((2R,7aS)-2-fluorotetrahydro-1H-pyrrolizin-7a(5H)-yl)methoxy)quinazolin-7-yl)-2-amino-7-fluorobenzo[b]thiophene-3-carbonitrile], the IC50 on KRAS WT, at KRAS G12S and on KRAS G12D was less than 5 µM in each case.

As to `N#Cc1c(NC(=O)C2CC2(F)F)sc2c(F)ccc(-c3c(F)c4nc(OC[C@@]56CCCN5C[C@H](F)C6)nc(N5CCC6(CCN6C(=O)C6CC6(F)F)C5)c4c(=O)n3C3CC3)c12` (stereo partly drawn) [Compound 343, N-(3-cyano-4-(6-cyclopropyl-4-(1-(2,2-difluorocyclopropane-1-carbonyl)-1,6-diazaspiro[3.4]octan-6-yl)-8-fluoro-2-(((2R,7aS)-2-fluorotetrahydro-1H-pyrrolizin-7a(5H)-yl)methoxy)-5-oxo-5,6-dihydropyrido[4,3-d]pyrimidin-7-yl)-7-fluorobenzo[b]thiophen-2-yl)-2,2-difluorocyclopropane-1-carboxamide], the IC50 on KRAS WT, on KRAS G12S and on KRAS G12D was less than 5 µM in each case.

Consider `C[C@H](Oc1nc(N2CCC3(CCN3C(=O)[C@@H]3C[C@H]3F)C2)c2cc(Cl)c(-c3ccc(F)c4sc(N)c(C#N)c34)c(F)c2n1)[C@@H]1CCCN1C` (stereo partly drawn) [Compound 271, 2-amino-4-(6-chloro-8-fluoro-4-(1-((1S,2R)-2-fluorocyclopropane-1-carbonyl)-1,6-diazaspiro[3.4]octan-6-yl)-2-((S)-1-((S)-1-methylpyrrolidin-2-yl)ethoxy)quinazolin-7-yl)-7-fluorobenzo[b]thiophene-3-carbonitrile], for which the IC50 at KRAS WT, on KRAS G12S and at KRAS G12D was less than 5 µM each time.

In the case of `Cc1ncn(C(=O)N2CC[C@@]23CCN(c2nc(OC[C@@]45CCCN4C[C@H](F)C5)nc4c(F)c(-c5ccc(F)c6sc(N)c(C#N)c56)c(Cl)cc24)C3)n1` (atropisomer, axis not shown; (aS)) [Compound 338, (R)-2-amino-4-(6-chloro-8-fluoro-2-(((2R,7aS)-2-fluorotetrahydro-1H-pyrrolizin-7a(5H)-yl)methoxy)-4-((R)-1-(3-methyl-1H-1,2,4-triazole-1-carbonyl)-1,6-diazaspiro[3.4]octan-6-yl)quinazolin-7-yl)-7-fluorobenzo[b]thiophene-3-carbonitrile], the IC50 at KRAS WT, on KRAS G12S and on KRAS G12D was less than 5 µM throughout.

With `C[C@H](Oc1nc(N2CCCC3(CCN3C(=O)n3cncn3)C2)c2cc(Cl)c(-c3ccc(F)c4sc(N)c(C#N)c34)c(F)c2n1)[C@@H]1CCCN1C` (stereo partly drawn) [Compound 201, 4-(4-(1-(1H-1,2,4-triazole-1-carbonyl)-1,6-diazaspiro[3.5]nonan-6-yl)-6-chloro-8-fluoro-2-((S)-1-((S)-1-methylpyrrolidin-2-yl)ethoxy)quinazolin-7-yl)-2-amino-7-fluorobenzo[b]thiophene-3-carbonitrile], the IC50 at KRAS WT, on KRAS G12S and at KRAS G12D was less than 5 µM throughout.

`C[C@H](Oc1nc(N2CCC3(CCN3C(=O)n3cncn3)C2)c2cc(Cl)c(-c3ccc(F)c4sc(N)c(C#N)c34)c(F)c2n1)[C@@H]1CCCN1C` (stereo partly drawn) [Compound 207, 4-(4-(1-(1H-1,2,4-triazole-1-carbonyl)-1,6-diazaspiro[3.4]octan-6-yl)-6-chloro-8-fluoro-2-((S)-1-((S)-1-methylpyrrolidin-2-yl)ethoxy)quinazolin-7-yl)-2-amino-7-fluorobenzo[b]thiophene-3-carbonitrile]: the IC50 on KRAS WT, at KRAS G12S and on KRAS G12D was less than 5 µM throughout.

As for `Nc1nc2c(-c3ccc4c(N5CCC6(CCN6)CC5)nc(OC[C@@]56CCCN5C[C@H](F)C6)nc4c3F)ccc(F)c2s1` [Compound 204, 7-fluoro-4-(8-fluoro-2-(((2R,7aS)-2-fluorotetrahydro-1H-pyrrolizin-7a(5H)-yl)methoxy)-4-(1,7-diazaspiro[3.5]nonan-7-yl)quinazolin-7-yl)benzo[d]thiazol-2-amine], the IC50 on KRAS WT, at KRAS G12S and on KRAS G12D was less than 5 µM in each case.

On to `N#Cc1c(N)sc2c(F)ccc(-c3c(Cl)cc4c(N5CCC6(CCCN6C(=O)C6CC6(F)F)C5)nc(OC[C@@]56CCCN5C[C@H](F)C6)nc4c3F)c12` (stereo partly drawn) [Compound 217, 2-amino-4-(6-chloro-4-(1-(2,2-difluorocyclopropane-1-carbonyl)-1,7-diazaspiro[4.4]nonan-7-yl)-8-fluoro-2-(((2R,7aS)-2-fluorotetrahydro-1H-pyrrolizin-7a(5H)-yl)methoxy)quinazolin-7-yl)-7-fluorobenzo[b]thiophene-3-carbonitrile], for which the IC50 at KRAS WT, at KRAS G12S and at KRAS G12D was less than 5 µM in each case.

As to `Nc1nc2c(-c3c(Cl)cc4c(N5CCC6(CCN6C(=O)n6cncn6)C5)nc(OC[C@@]56CCCN5C[C@H](F)C6)nc4c3F)ccc(F)c2s1` (stereo partly drawn) [Compound 264, (6-(7-(2-amino-7-fluorobenzo[d]thiazol-4-yl)-6-chloro-8-fluoro-2-(((2R,7aS)-2-fluorotetrahydro-1H-pyrrolizin-7a(5H)-yl)methoxy)quinazolin-4-yl)-1,6-diazaspiro[3.4]octan-1-yl)(1H-1,2,4-triazol-1-yl)methanone], the IC50 at KRAS WT, on KRAS G12S and on KRAS G12D was less than 5 µM each time.

Consider `C[C@H]1CN(C(=O)n2cnc(Br)n2)[C@]12CCN(c1nc(OC[C@@]34CCCN3C[C@H](F)C4)nc3c(F)c(-c4ccc(F)c5sc(N)c(C#N)c45)c(Cl)cc13)C2` [Compound 224, 2-amino-4-(4-((3S,4R)-1-(3-bromo-1H-1,2,4-triazole-1-carbonyl)-3-methyl-1,6-diazaspiro[3.4]octan-6-yl)-6-chloro-8-fluoro-2-(((2R,7aS)-2-fluorotetrahydro-1H-pyrrolizin-7a(5H)-yl)methoxy)quinazolin-7-yl)-7-fluorobenzo[b]thiophene-3-carbonitrile], for which the IC50 on KRAS WT, at KRAS G12S and at KRAS G12D was less than 5 µM each time.

Take `C#Cc1c(F)ccc2cc(O)cc(-c3ncc4c(N5CCC6(CCN6C(=O)n6cncn6)C5)nc(O[C@@H](C)[C@@H]5CCCN5C)nc4c3F)c12` (stereo partly drawn) [Compound 256, (6-(7-(8-ethynyl-7-fluoro-3-hydroxynaphthalen-1-yl)-8-fluoro-2-((S)-1-((S)-1-methylpyrrolidin-2-yl)ethoxy)pyrido[4,3-d]pyrimidin-4-yl)-1,6-diazaspiro[3.4]octan-1-yl)(1H-1,2,4-triazol-1-yl)methanone]: the IC50 is more than 5 µM on KRAS WT, less than 5 µM at KRAS G12S and more than 5 µM on KRAS G12D.

Turning to `N#Cc1c(N)sc2c(F)ccc(-c3c(Cl)cc4c(N5CCC6(CCN6C#N)C5)nc(OC[C@@]56CCCN5C[C@H](F)C6)nc4c3F)c12` (stereo partly drawn) [Compound 303, 6-(7-(2-amino-3-cyano-7-fluorobenzo[b]thiophen-4-yl)-6-chloro-8-fluoro-2-(((2R,7aS)-2-fluorotetrahydro-1H-pyrrolizin-7a(5H)-yl)methoxy)quinazolin-4-yl)-1,6-diazaspiro[3.4]octane-1-carbonitrile], the IC50 on KRAS WT, at KRAS G12S and at KRAS G12D was less than 5 µM each time.
